One series deals with HSV-1. Kind of series: HSV-1-GFP infection of CV-1 cells, flow cytometry. The following applies: added to CV-1 cells before infection; 16 hours. The series is classed as cell-based, Herpes Simplex Virus Type 1. The procedure: CV-1 cells were infected with HSV-1-GFP for 16 hours. Post-infection, CV-1 cells were detected by flow cytometry (FIG. 33). […] Acyclovir (the standard of care for severe HSV-1 infections) was also added as a control at the same molar ratio.

In a further series the test system is CV-1 cells. Kind of series: Toxicity in CV-1 cells.
The conditions of series [1]: for ALT / AST / AlkPhos / BUN / Bilirubin / CPK / Creatinine / GGT / Lipase / Platelets / RBC / WBC: rats. The procedure:
Toxicity studies were later performed with larger numbers of animals (n=18 in the treatment group) using a high-dose at the upper end of the therapeutic range (PA-PEG24 (SEQ ID NO: 21) at 40 mg [160 mg/kg] i.v.). Eight animals were sacrificed at day 3, and ten were sacrificed at day 14.

For series [2] the following is noted: 60 mg [240 mg/kg] i.v.; for ALT / AST / AlkPhos / BUN / Bilirubin / CPK / Creatinine / GGT / Lipase / Platelets / RBC / WBC: rats, n = 6.
The nature of a further series: Solubility in water. The series is classed as physicochemical.
Series [3] relates to complement-mediated hemolysis of transfused huRBCs. Kind of series: AIHTR Wistar rat model, 15% xenotransfusion of human RBCs. The series is classed as in vivo. The following applies: CVF 130 μg I.P. 24 hours prior to transfusion.
Procedure: This process generates 1 ml huRBCs at 80% hematocrit, which was given as a 15% transfusion to the rats.
Using weight-based doses of ketamine and acepromazine, animals were sedated throughout the course of the experiment with periodic monitoring of vital signs. Blood samples were collected into EDTA microtainer tubes (BD) from the animals prior to the huRBC transfusion and then at 30 seconds, 5 minutes, 20 minutes, 60 minutes and 120 minutes after the huRBC transfusion. […] These samples were kept shaking at room temperature prior to processing and centrifuged at 2655×g for five minutes to separate out the plasma and sediment the RBCs. Plasma was aliquoted and the RBC pellet was processed separately as described below. Upon completion of the final (120 minutes or 360 minutes) blood draw, the animal was euthanized using Fatal Plus (Vortech).
Plasma generated from the above experiments was analyzed for the free hemoglobin using spectrophotometry, as described previously (Shah et al. “Clinical hypothermia temperatures increase complement activation and cell destruction via the classical pathway.” J Transl Med 2014; 12:181.).
Series [4] concerns hypoxic ischemic brain injury. In kind it is in vivo, Wistar rat.
The mark [5] stands for this setting: 40 mg [160 mg/kg] i.v., 48 Hr, n = 8.
The mark [6] stands for this setting: 40 mg [160 mg/kg] i.v., Day14, n = 10.

This is an account of results in patent US10005818B2, “Derivative peptide compounds and methods of use” (REALTA HOLDINGS, LLC, priority 2010, dated 2018).

Read-outs that look alike come from different tables or passages of the source.

As for `Nc1nc2c(ncn2COCCO)c(=O)[nH]1` [Acyclovir, reference compound], the “inhibition of HSV-1 infection / replication” value in the series with HSV-1 is on record as “never able to completely inhibit replication”. Also, in the series with CV-1 cells, the “toxicity in CV-1 cells” value was “minimal toxicity”.

For the compound `CC[C@H](C)[C@H](N)C(=O)N[C@@H](C)C(=O)N[C@@H](CC(C)C)C(=O)N[C@H](C(=O)N[C@@H](CC(C)C)C(=O)N[C@@H](CCC(=O)O)C(=O)N1CCC[C@H]1C(=O)N[C@H](C(=O)N[C@@H](CS)C(=O)N[C@@H](CS)C(=O)N[C@@H](CCC(N)=O)C(=O)N[C@@H](CCC(=O)O)C(=O)N[C@@H](CCCNC(=N)N)C(=O)N[C@@H](C)C(=O)N[C@@H](C)C(=O)NCCOCCOCCOCCOCCOCCOCCOCCOCCOCCOCCOCCOCCOCCOCCOCCOCCOCCOCCOCCOCCOCCOCCOCCOCCC(=O)O)[C@@H](C)CC)[C@@H](C)CC` [PA-dPEG24], the “blood chemistry assay results (CBC, superchem, coagulation)” value in series [1] (40 mg [160 mg/kg] i.v.) is “no differences between pretreatment, day 3 or day 14 values”. In addition, the organ histology result in series [1] (40 mg [160 mg/kg] i.v., day 3 and day 14) was “no histological evidence for toxicity in any organ”. Also, the single-dose toxicological evaluation result in series [1] (rat, in vivo) is given as “no safety concerns”. For the same compound, in series [1] (setting [5]), the ALT is on record as 62.8 (±4.0) U/L, the AST is reported as 108 (±26) U/L, the AlkPhos is listed as 104 (±19) U/L and the BUN is given as 17.8 (±3.2) mg/dL. For the same compound, in series [1] (setting [5]), the Bilirubin is 0.1 (±0) mg/dL, the CPK is listed as 538 (±128) U/L, the Creatinine is listed as 0.3 (±0) mg/dL and the GGT is 1.0 (±0) U/L. For the same compound, in series [1] (setting [5]), the Lipase is 11.8 (±1.5) U/L, the Platelets is given as 987 (±93) 10^3/μL, the RBC is 5.8 (±0.5) 10^6/μL and the WBC was 6.0 (±3.0) 10^3/mL. Also, in series [1] (setting [6]), the ALT was 77.4 (±13.9) U/L, the AST was 111 (±14) U/L, the AlkPhos was 115 (±56) U/L and the BUN is reported as 13.2 (±1.9) mg/dL. Moreover, in series [1] (setting [6]), the Bilirubin is given as 0.1 (±0) mg/dL, the CPK is reported as 592 (±163) U/L, the Creatinine is 0.3 (±0) mg/dL and the GGT is 1.1 (±0.4) U/L. In series [1] (setting [6]), the Lipase is 6.4 (±1.3) U/L, the Platelets is on record as 825 (±229) 10^3/μL, the RBC is 6.6 (±0.4) 10^6/μL and the WBC is given as 7.3 (±2.5) 10^3/mL. In addition, the organ histology entry in series [2] (brain, heart, lungs, liver, spleen, kidneys, pancreas) is listed as “Normal histology”. Moreover, the “blood work (CBC and complete blood chemistry)” value in series [2] (first 24 hours, 48 hours, day 7 or day 14) is given as “No toxicities”. Moreover, in series [2] (48 Hr), the ALT is listed as 44.0 (±10.4) U/L, the AST is 69.0 (±8.7) U/L, the AlkPhos is 194 (±29) U/L and the BUN was 15.8 (±2.1) mg/dL. Further, in series [2] (48 Hr), the Bilirubin is 0.1 (±0) mg/dL, the CPK is on record as 142 (±47) U/L, the Creatinine is recorded as 0.3 (±0) mg/dL and the GGT is 1 (±0) U/L. In addition, in series [2] (48 Hr), the Lipase was 10.3 (±1.5) U/L, the Platelets is listed as 1045 (±156) 10^3/μL, the RBC is given as 5.3 (±0.3) 10^6/μL and the WBC is reported as 10.5 (±2.9) 10^3/mL. Also, in series [2] (Day7), the ALT is given as 76.3 (±10.9) U/L, the AST was 84.3 (±6.74) U/L, the AlkPhos is 147 (±34) U/L and the BUN is reported as 13.5 (±1.64) mg/dL. Further, in series [2] (Day7), the Bilirubin was 0.1 (±0) mg/dL, the CPK is on record as 316 (±90) U/L, the Creatinine is reported as 0.4 (±0.1) mg/dL and the GGT is 1 (±0) U/L. In addition, in series [2] (Day7), the Lipase is given as 8.5 (±1.05) U/L, the Platelets is listed as 623 (±417) 10^3/μL, the RBC is recorded as 5.8 (±0.5) 10^6/μL and the WBC was 5.4 (±1.12) 10^3/mL. Also, in series [2] (Day14), the ALT is given as 55.8 (±5.6) U/L, the AST is 104 (±15) U/L, the AlkPhos is 154 (±42) U/L and the BUN is listed as 14.7 (±1.0) mg/dL. In addition, in series [2] (Day14), the Bilirubin is on record as 0.1 (±0) mg/dL, the CPK is 580 (±172) U/L, the Creatinine was 0.4 (±0.1) mg/dL and the GGT is reported as 1 (±0) U/L. Moreover, the Lipase in series [2] (Day14) is 9.7 (±2.0) U/L. Besides, the “toxicity in CV-1 cells” value with CV-1 cells is recorded as “minimal toxicity”. Also, the “solubility in water / aqueous solutions” value in “Solubility in water” is given as “soluble in water”. The Solubility in water entry in the series “Solubility in water” (Table 6, PEGylated PA peptides) is on record as “Yes”. Further, in the series “Solubility in water” (Table 7, PEGylated and sarcosine/alanine substitution peptides), the Solubility in water result was “Yes”.

cobra venom factor [CVF]: the “free hemoglobin in rat plasma” value in series [3] is “low levels of free hemoglobin”. For the same compound, the brain injury entry in series [4] (CVF injection before ligation/hypoxia) is given as “almost completely attenuated brain injury”. Also, the systemic complement activity entry in series [4] (CVF injection, for 72 hours after injection) was “almost completely eliminated”.
